Patent US7704976B2, “Use of N-acetyl-D-glucosamine for preparing medicines for urogenital tract infection's treatment and prevention” (Third Military Medical University, Chinese People's …, priority 2002, dated 2010)

System: lactobacillus
Experiment: Liquid culture of lactobacillus
Assay type: cell-based

SMILES: CC(=O)N[C@H]1C(O)O[C@H](CO)[C@@H](O)[C@@H]1O (stereo partly drawn) [N-acetyl-D-glucosamine]
- growth of lactobacillus: could promote the growth of lactobacillus
